Measurements published in patent US6914045B2, “Glycopeptide antibiotics” (Wyeth Holdings Corporation, priority 2001, dated 2005).

Tests used:
Staphylococcus aureus = assay: zone of inhibition, agar well assay plate; type: cell-based; settings: 25 μl of extract per 5 mm well, incubated overnight at 37° C.
Method: Protocol for Assay Plate Staphylococcus aureus
Inoculate 10 mL of Tryptic Soy Broth with a loopful of slant culture, Staphylococcus aureus, and place in a stationary rack at 37° C. After 16-18 hour incubation, the Optical Density (OD) of the culture is read@A600 nm, using a 1:10 dilution. OD should be between 0.1-0.3, and if not adjust with Tryptic Soy Broth. A 40 mL sample of Nutrient Agar, pH 6.8 is inoculated with 90 ul of S. aureus culture and poured into a sterile petri dish. When the agar has solidified, wells (5 mm) are plated using an automated welling device. Wells are inoculated with 25 μl of extract and incubated overnight at 37° C. Zones of inhibition are measured and recorded the following morning.

Enterococcus sp. = assay: in vitro antibacterial evaluation, MIC by broth dilution; type: cell-based; settings: broth dilution, 18 hours at 35° C.
How it was run: (§1)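 Broth dilution per NCCLS standard M7-A2 in Muller-Hinton II […], with an inoculum of 5×10^5 CFU/mL and antibiotic spanning 64-0.06 μg/mL. The MIC is the lowest concentration that inhibits growth of the organism.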

Escherichia coli = assay: as above; type: cell-based; settings: 18 hours at 35° C.
How it was run: as §1

Staphylococcus sp. = assay: as above; type: cell-based; settings: broth dilution, 18 hours at 35° C.
How it was run: as §1

Streptococcus sp. = assay: as above; type: cell-based; settings: broth dilution, 18 hours at 35° C.
How it was run: as §1

[1] = system: Streptococcus pneumoniae (GC 1894); assay: acute lethal infection in mice; type: in vivo; settings: female CD-1 mice, intraperitoneal challenge, intravenous 30 min. after infection, 7 day survival
How it was run: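 Protocol: bacteria suspended in trypticase soy broth or hog gastric mucin injected ip into female CD-1 mice at a level killing untreated controls in 24-48 hr; compound given iv in saline or 5% dextrose 30 min post-challenge; five mice per dose; ED50 derived from pooled 7 day survival of three runs.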

CC(C)CCC(=O)OC1C(CO)OC(OC2C(CO)OC(Oc3ccc(CC4NC(=O)C(C(C)c5ccccc5)NC(=O)CNC(=O)C(CO)NC(=O)C(C(O)C5CNC(=N)N5C5OC(CO)C(O)C(O)C5O)NC(=O)C(C(O)C5CNC(=N)N5)NC4=O)cc3)C(O)C2O)C(O)C1O (stereo not drawn) [Example 270c, Cyclo[glycyl-β-methylphenylalanyl-O-[4-O-[4-O-(4-methylpentanoyl)hexopyranosyl]-hexopyranosyl]tyrosyl-3-(2-iminoimidazolidin-4-yl)seryl-3-(3-hexopyranosyl-2-iminoimidazolidin-4-yl)serylseryl]]
11 mm: Zone of Inhibition vs. S. aureus (Staphylococcus aureus)

CC(c1ccccc1)C1NC(=O)CNC(=O)C(CO)NC(=O)C(C(O)C2CNC(=N)N2C2OC(CO)C(O)C(O)C2O)NC(=O)C(C(O)C2CNC(=N)N2)NC(=O)C(Cc2ccc(OC3OC(CO)C(OC4OC5COC(C6CCCCC6)OC5C(O)C4O)C(O)C3O)cc2)NC1=O (stereo not drawn) [Example 112, Cyclo[glycyl-β-methylphenylalanyl-O-[4-O-[4,6-O-(cyclohexylmethylene)hexopyranosyl]-hexopyranosyl]tyrosyl-3-(2-iminoimidazolidin-4-yl)seryl-3-(3-hexopyranosyl-2-iminoimidazolidin-4-yl)serylseryl]]
0.5 µg/mL: MIC Coagulase Negative Staphylococcus (ID-3941) (Staphylococcus sp.) | MIC Coagulase Negative Staphylococcus (ID-3941) (Staphylococcus sp.; strain ID-3941) | MIC Streptococcus pyogenes (ID-3187) (Streptococcus sp.; Streptococcus pyogenes (ID-3187)) | MIC Streptococcus pyogenes (ID-3187) (Streptococcus sp.; strain ID-3187)
1 to 2 µg/mL: MIC Enterococcus faecalis (GC 2242) (Enterococcus sp.; Enterococcus faecalis (GC 2242)) | MIC Enterococcus faecium (GC 2243) (Enterococcus sp.; Enterococcus faecium (GC 2243)) | MIC Enterococcus faecalis (GC 2242) (Enterococcus sp.; strain GC 2242) | MIC Enterococcus faecium (GC 2243) (Enterococcus sp.; strain GC 2243) | MIC Staphylococcus aureus (GC 4545) (Staphylococcus sp.) | MIC Staphylococcus aureus (GC 4545) (Staphylococcus sp.; strain GC 4545)
0.02 mg/kg: median effective dose (ED50), Streptococcus pneumoniae (GC 1894) [1]
1 µg/mL: MIC Escherichia coli (GC 4560) (Escherichia coli; strain GC 4560) | MIC Coagulase Negative Staphylococcus (GC 6257) (Staphylococcus sp.) | MIC Staphylococcus aureus (ATCC 29213) (Staphylococcus sp.) | MIC Staphylococcus aureus (GC 4541) (Staphylococcus sp.) | MIC Staphylococcus aureus (GC 4542) (Staphylococcus sp.) | MIC Staphylococcus haemolyticus (GC 4546) (Staphylococcus sp.) | MIC Staphylococcus aureus (ATCC 29213) (Staphylococcus sp.; strain ATCC 29213) | MIC Staphylococcus aureus (GC 4541) (Staphylococcus sp.; strain GC 4541) | MIC Staphylococcus aureus (GC 4542) (Staphylococcus sp.; strain GC 4542) | MIC Staphylococcus haemolyticus (GC 4546) (Staphylococcus sp.; strain GC 4546) | MIC Coagulase Negative Staphylococcus (GC 6257) (Staphylococcus sp.; strain GC 6257)
<0.12 µg/mL: MIC Streptococcus agalactiae (GC 4564) (Streptococcus sp.; Streptococcus agalactiae (GC 4564)) | MIC Streptococcus pneumoniae (GC 4565) (Streptococcus sp.; Streptococcus pneumoniae (GC 4565)) | MIC Streptococcus pyogenes (GC 4563) (Streptococcus sp.; Streptococcus pyogenes (GC 4563)) | MIC Streptococcus pyogenes (GC 4563) (Streptococcus sp.; strain GC 4563) | MIC Streptococcus agalactiae (GC 4564) (Streptococcus sp.; strain GC 4564) | MIC Streptococcus pneumoniae (GC 4565) (Streptococcus sp.; strain GC 4565)
32 µg/mL: MIC Escherichia coli (ATCC 25922) (Escherichia coli; strain ATCC 25922)
>16 µg/mL: MIC Escherichia coli (GC 4559) (Escherichia coli; strain GC 4559)
2 to 4 µg/mL: MIC Enterococcus faecalis (GC 4553) (Enterococcus sp.; Enterococcus faecalis (GC 4553)) | MIC Enterococcus faecalis (GC 4553) (Enterococcus sp.; strain GC 4553)
0.5 to 1 µg/mL: MIC Coagulase Negative Staphylococcus (GC 4547) (Staphylococcus sp.) | MIC Coagulase Negative Staphylococcus (GC 4548) (Staphylococcus sp.) | MIC Coagulase Negative Staphylococcus (GC 4549) (Staphylococcus sp.) | MIC Coagulase Negative Staphylococcus (GC 4551) (Staphylococcus sp.) | MIC Staphylococcus aureus (GC 1131) (Staphylococcus sp.) | MIC Staphylococcus aureus-SMITH (GC 4543) (Staphylococcus sp.) | MIC Staphylococcus aureus (GC 1131) (Staphylococcus sp.; inoculum 5×10^5 CFU/mL, strain GC 1131) | MIC Coagulase Negative Staphylococcus (GC 4547) (Staphylococcus sp.; strain GC 4547) | MIC Coagulase Negative Staphylococcus (GC 4548) (Staphylococcus sp.; strain GC 4548) | MIC Coagulase Negative Staphylococcus (GC 4549) (Staphylococcus sp.; strain GC 4549) | MIC Coagulase Negative Staphylococcus (GC 4551) (Staphylococcus sp.; strain GC 4551) | MIC Staphylococcus aureus-SMITH (GC 4543) (Staphylococcus sp.; strain SMITH GC 4543)
0.5 to 2 µg/mL: MIC Enterococcus faecium (GC 4557) (Enterococcus sp.; Enterococcus faecium (GC 4557)) | MIC Enterococcus faecium (GC 4557) (Enterococcus sp.; strain GC 4557) | MIC Staphylococcus aureus (GC 4544) (Staphylococcus sp.) | MIC Staphylococcus aureus (GC 4544) (Staphylococcus sp.; strain GC 4544)
2 µg/mL: MIC Enterococcus avium (GC 4558) (Enterococcus sp.; Enterococcus avium (GC 4558)) | MIC Enterococcus faecalis (ATCC 29212) (Enterococcus sp.; Enterococcus faecalis (ATCC 29212)) | MIC Enterococcus faecalis (GC 2691) (Enterococcus sp.; Enterococcus faecalis (GC 2691)) | MIC Enterococcus faecalis (GC 3059) (Enterococcus sp.; Enterococcus faecalis (GC 3059)) | MIC Enterococcus faecalis (GC 4552) (Enterococcus sp.; Enterococcus faecalis (GC 4552)) | MIC Enterococcus faecalis (GC 4554) (Enterococcus sp.; Enterococcus faecalis (GC 4554)) | MIC Enterococcus faecalis (GC 6189) (Enterococcus sp.; Enterococcus faecalis (GC 6189)) | MIC Enterococcus faecium (GC 4556) (Enterococcus sp.; Enterococcus faecium (GC 4556)) | MIC Enterococcus faecalis (ATCC 29212) (Enterococcus sp.; strain ATCC 29212) | MIC Enterococcus faecalis (GC 2691) (Enterococcus sp.; strain GC 2691) | MIC Enterococcus faecalis (GC 3059) (Enterococcus sp.; strain GC 3059) | MIC Enterococcus faecalis (GC 4552) (Enterococcus sp.; strain GC 4552) | MIC Enterococcus faecalis (GC 4554) (Enterococcus sp.; strain GC 4554) | MIC Enterococcus faecium (GC 4556) (Enterococcus sp.; strain GC 4556) | MIC Enterococcus avium (GC 4558) (Enterococcus sp.; strain GC 4558) | MIC Enterococcus faecalis (GC 6189) (Enterococcus sp.; strain GC 6189)

CCCC(=O)OC1C(O)C(CO)OC(OC2C(CO)OC(Oc3ccc(CC4NC(=O)C(C(C)c5ccccc5)NC(=O)CNC(=O)C(CO)NC(=O)C(C(O)C5CNC(=N)N5C5OC(CO)C(O)C(O)C5O)NC(=O)C(C(O)C5CNC(=N)N5)NC4=O)cc3)C(O)C2O)C1O (stereo not drawn) [Example 272b, Cyclo[glycyl-β-methylphenylalanyl-O-[4-O-(3-O-butanoyl-hexopyranosyl)-hexopyranosyl]tyrosyl-3-(2-iminoimidazolidin-4-yl)seryl-3-(3-hexopyranosyl-2-iminoimidazolidin-4-yl)serylseryl]]
8 mm: Zone of Inhibition vs. S. aureus (Staphylococcus aureus)
